Data reported in patent publication CN115252762A, “一种高分子化合物的生长因子结合用途” (East China University of Science and Technology, priority 2021, dated 2022).

Assays:
[1] = biological target: T1, bone morphogenetic protein-2 (BMP-2) [骨形态发生蛋白-2(BMP-2)] (Homo sapiens, UniProt P12643); test: Glass surface BMP-2 binding, protein immunofluorescence; conditions: relative to (Lys0.4Nle0.6)30 polymer; grafted on glass
T1 sequence (P12643 283-396): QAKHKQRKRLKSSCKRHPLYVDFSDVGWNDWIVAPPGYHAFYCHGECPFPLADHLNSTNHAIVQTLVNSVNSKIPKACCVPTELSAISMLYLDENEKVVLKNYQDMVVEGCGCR

[2] = tested on: growth factors [生长因子]; test: Glass surface growth factor binding, peptide versus polymer (overall); conditions: peptide versus (Lys0.4Nle0.6)30 polymer; grafted on glass
[3] = biological target: platelet-derived factor PDGF-AA [血小板衍生因子PDGF-AA] (Homo sapiens, UniProt P04085); test: Glass surface PDGF-AA binding, peptide versus polymer; conditions: relative to (Lys0.4Nle0.6)30 polymer; grafted on glass
[4] = biological target: TGF-β (Homo sapiens, UniProt P01137); test: Glass surface TGF-β binding, peptide versus polymer; conditions: relative to (Lys0.4Nle0.6)30 polymer; grafted on glass
Sequence of TGF-β (P01137 279-390 limits assumed): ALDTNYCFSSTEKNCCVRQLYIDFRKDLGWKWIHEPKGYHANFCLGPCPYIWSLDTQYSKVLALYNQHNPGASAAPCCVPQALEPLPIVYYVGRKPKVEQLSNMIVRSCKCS

[5] = biological target: T2, fibroblast growth factor-21 (FGF-21) [成纤维细胞生长因子-21(FGF-21)] (Homo sapiens, UniProt Q9NSA1); test: Glass surface FGF-21 binding, protein immunofluorescence; conditions: relative to (Lys0.4Nle0.6)30 polymer; grafted on glass
T2 sequence (Q9NSA1 29-209): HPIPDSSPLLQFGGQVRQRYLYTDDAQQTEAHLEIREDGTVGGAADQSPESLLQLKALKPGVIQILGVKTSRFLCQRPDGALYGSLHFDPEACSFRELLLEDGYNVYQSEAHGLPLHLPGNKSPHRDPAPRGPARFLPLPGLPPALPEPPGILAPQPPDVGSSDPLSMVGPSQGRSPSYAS

BMP-2 binding amount, multiple of peptide polymer [1]: 1.99 fold
growth factor binding compared with polymer [2]: 优于聚合物
PDGF-AA binding amount, multiple of peptide polymer [3]: 2.06 fold
TGF-β binding amount, multiple of peptide polymer [4]: 1.61 fold
FGF-21 binding amount, multiple of peptide polymer [5]: 2.55 fold
Substance: (L-Lys)-(L-Nor)-(D-Lys)-(D-Nor)-(L-Nor)-(L-Lys)-(D-Nor)-(D-Lys)-(L-Nor)-(D-Nor)-(L-Lys)-(L-Nor)-(D-Lys)-(D-Nor)-(L-Nor)-(L-Lys)-(D-Nor)-(D-Lys)-(L-Nor)-(D-Nor)-(L-Lys)-(L-Nor)-(D-Lys)-(D-Nor)-(L-Nor)-(L-Lys)-(D-Nor)-(L-Nor)-(L-Cys) [Lys0.4Nle0.6多肽]
